Measured values published in patent publication US7156881B2, “Counteracting bioprosthetic calcification” (The Children's Hospital of Philadelphia, priority 2002, dated 2007).
Marks after values point to notes of the source that are not given here. One block for each compound: values may come before it.

How the values were obtained:
[1] = Kinetics of epoxy-ring opening with different nucleophiles (t-butyl glycidyl ether in water); format: physicochemical; conditions: for reactivity relative to nucleophiles without a sulfur atom: 20° C. and pH of about 7; for Reacted substrate / k · 10^3: 20° C., pH ca. 7
Text: Pursuant to the present invention, the functional groups need to cleave an epoxy ring, and nucleophilic groups are illustrative in this respect.

[2] = Kinetics of epoxy-ring opening with different nucleophiles (triglicidyl amine in water); format: physicochemical; conditions: 20° C.; for K * 10^3 / Reacted substrate: pH ca. 7; for rate of reaction with TGA-epoxy (k): pH 7.4, 20 mM of MABP
Text: The bioprosthetic materials treated by both MABP and TGA show a significant improvement in anti-calcification ability. Consequently, it is believed that the MABP has successfully met the above-mentioned criteria, i.e., the reactive functional group is active enough to dominate the co-attachment reaction between MABP and TGA, and to cause MABP to attach to a TGA epoxide more completely.

[3] = tested on: porcine aortic valve cusps; assay: 21-day rat subdermal implants, Ca content by atomic absorption: cusp; format: in vivo, Sprague-Dawley rats; conditions: Cusp implanted
Method: (§1) A series of bioprosthetic material samples were prepared, in order to compare the anti-calcification efficacy of TGA-MABP with TGA crosslinking alone. The material used were porcine aortic valve cusps, porcine aortic wall, and bovine pericardium. These materials were obtained fresh at slaughter and transported to the laboratory on ice.

[4] = Rat weight in 21-day subdermal implant study; conditions: 21-day rat subdermal implants
Method: All materials were rinsed thoroughly with normal saline, and 1 cm^2 pieces of aortic wall, pericardium, or individual cusp leaflets crosslinked with 100 mM TGA with the inclusion of 20 mM MABP, as described above with daily replacement of solutions for 7 days. After thorough rinse with normal saline, biomaterials were surgically implanted in dorsal subdermal pouches of 75–80 g male Sprague-Dawley rats as previously described. Animals were sacrificed after 21 days, implants recovered, rinsed, dried, and analyzed for Ca content by atomic absorption spectroscopy (AA).

[5] = TGA cross-linking of bovine pericardium, shrink temperature (Ts) by DSC; format: physicochemical; conditions: for shrink temperature (Ts): 100 mM TGA, borate mannitol buffer pH 7.4, room temperature
Method: Bovine pericardium was obtained fresh at slaughter and transported to the lab on ice. After extensive rinsing with normal saline, the tissue was cut into 1 cm squares and segregated into 5 groups for crosslinking as described below. Reactions were carried out at room temperature on a rocker platform for 7 days with daily replacement of each solution with one freshly prepared in borate mannitol buffer (9.33 g/l sodium tetraborate, −˜2 g mannitol to pH 7.4). Pericardial samples were removed from the reaction vessels daily, rinsed and stored individually at 4° C. in normal saline for shrink temperature determination (Ts) by Differential Scanning […] (DSC) analysis at the end of the experiment.
MABP stock solution was prepared daily by adding water, neutralizing with NaHCO3, and diluting to one of the three desired concentrations (2 mM, 20 mM, 100 mM) in boratemannitol buffer. TGA then was added to each solution to a final concentration of 100 mM TGA. Two additional groups were treated solely with 100 mM TGA in the same buffer for 7 days, and one of these treated again on day 8 with 100 mM MABP in buffer.
Further experiments were done testing the anti-calcification potential of MABP co-attachment utilized the maximum non-interfering condition tested: 20 mM MABP and 100 mM TGA in borate-mannitol buffer, pH 7.4. Those experimental data are shown in Table III and graphically in FIG. 1.

[6] = tested on: aortic wall segment of a bioprosthetic implant; conditions: TGA-crosslinking methodology, related art; cited from earlier work
porcine aortic wall = assay: 21-day rat subdermal implants, Ca content by atomic absorption: aortic wall; format: in vivo, Sprague-Dawley rats; conditions: Aortic wall implanted
Method: as §1

[7] = tested on: bovine pericardial calcification; conditions: TGA-crosslinking methodology, related art; cited from earlier work
bovine pericardium = assay: 21-day rat subdermal implants, Ca content by atomic absorption: pericardium; format: in vivo, Sprague-Dawley rats; conditions: Pericardium implanted
Method: as §1

[8] = substrate 0.1 M, epoxide 0.3 M, time of reaction 3 h
[9] = substrate 0.1 M, epoxide 0.3 M, time of reaction 19 h
[10] = substrate 0.2 M, epoxide 0.1 M, time of reaction 1 h
[11] = substrate 0.4 M, epoxide 0.3 M, time of reaction 120 h
[12] = substrate 0.1 M, epoxide 0.3 M, time of reaction 48 h
[13] = substrate 0.2 M, epoxide 0.06 M, time of reaction 1.75 h
[14] = substrate 0.2 M, epoxide 0.1 M, time of reaction 2 h
[15] = substrate 0.1 M, epoxide 0.3 M, time of reaction 120 h
[16] = substrate 0.1 M, epoxide 0.3 M, time of reaction 5 min
[17] = substrate 0.1 M, epoxide 0.3 M, time of reaction 15 min

Compound: CC(O)(P(=O)(O)O)P(=O)(O)O [HEDP]
Reacted substrate [1, 11]: 5.5% | k · 10^3 [1, 11]: 1.6 l/mol · h

Compound: O=P(O)(O)C(CNCCS)P(=O)(O)O [MABP, 2-(2-mercaptoethylamino)-ethylidene-1,1-bisphosphonate]
effects on rat weight gain ([4]; inclusion of MABP): no significant effects | rate of reaction with TGA-epoxy (k) [2]: 1.2 mol⁻¹ h⁻¹ | K * 10^3 [2, 13]: 1120 1/mol * h | Reacted substrate [2, 13]: 10% | interference of MABP with the TGA crosslinking process (DSC) ([5]; equimolar concentration of MABP and TGA (100 mM each) versus the other conditions): grossly slowed the crosslinking process

Compound: O=P(O)(O)C(CS)P(=O)(O)O [MEBP, 2-mercaptoethlidene-1,1-bisphosphonate]
rate of reaction with TGA-epoxy (k) [2]: 0.035 mol⁻¹ h⁻¹ | K * 10^3 [2, 14]: 35 1/mol * h | Reacted substrate [2, 14]: 0.7%

Compound: C1OC1CN(CC1CO1)CC1CO1 (centres unmarked) [TGA, triglycidyl amine]
Ca ([3]; rat subdermal implants, prev. exp.): 2.07 +/− 0.31 μg/mg dry wt. | inhibition of calcification of the aortic wall segment [6]: relatively ineffective | Rat weight ([4]; Aortic wall implanted): 247.8 ± 7.9 g | Rat weight ([4]; Pericardium implanted): 268.2 ± 9.9 g | Ca (porcine aortic wall): 7.73 +/− 0.90 μg/mg dry wt. | inhibiting bovine pericardial calcification [7]: less effective | Ca (bovine pericardium): 11.23 +/− 4.74 μg/mg dry wt. | shrink temperature (Ts) ([5]; Day 1 of crosslinking): 72.6 +/− 1.0 | shrink temperature (Ts) ([5]; Day 2 of crosslinking): 77.4 +/− 0.5 | shrink temperature (Ts) ([5]; Day 3 of crosslinking): 78.2 +/− 0.3 | shrink temperature (Ts) ([5]; Day 4 of crosslinking): 79.6 +/− 0.4 | shrink temperature (Ts) ([5]; Day 6 of crosslinking): 80.2 +/− 0.3 | shrink temperature (Ts) ([5]; Day 7 of crosslinking): 81.0 +/− 0.6

Compound: O=S(O)(O)=S [Thiosulfate]
reactivity relative to nucleophiles without a sulfur atom [1]: at least twenty times more reactive | Reacted substrate [1, 16]: 30% | k · 10^3 [1, 16]: 23 000 l/mol · h | Reacted substrate [1, 17]: 52% | k · 10^3 [1, 17]: 17 000 l/mol · h | K * 10^3 [2, 16]: 23000 1/mol * h | Reacted substrate [2, 16]: 30% | K * 10^3 [2, 17]: 17000 1/mol * h | Reacted substrate [2, 17]: 52%

More lines, main results first:

Reacted substrate [1, 8]: 33% | Reacted substrate [1, 9]: 89%
Compound: CSCCC(NC(C)=O)C(=O)O (racemic) [N-Acetyl-DL-methionine]
reactivity relative to nucleophiles without a sulfur atom [1]: at least twenty times more reactive | k · 10^3 [1, 8]: 473 l/mol · h | k · 10^3 [1, 9]: 488 l/mol · h

Reacted substrate [1, 10]: 13% | Reacted substrate [2, 10]: 13%
Compound: N[C@@H](CS)C(=O)O [Cysteine]
reactivity relative to nucleophiles without a sulfur atom [1]: at least twenty times more reactive | k · 10^3 [1, 10]: 1618 l/mol · h | K * 10^3 [2, 10]: 1618 1/mol * h

Rat weight ([4]; Cusp implanted): 268.8 ± 6.5 g
Compound: O=CCCCC=O [Glutaraldehyde]
Ca ([3]; 21-day rat subdermal implants): 89.03 +/− 5.59* μg/mg dry wt.

Reacted substrate [1, 12]: 28%
Compound: c1c[nH]cn1 [Imidazole]
k · 10^3 [1, 12]: 24 l/mol · h

Reacted substrate [1, 15]: 60%
Compound: CC(=O)N[C@@H](Cc1c[nH]cn1)C(=O)O [N-Acetyl-L-histidine]
k · 10^3 [1, 15]: 29 l/mol · h

Reacted substrate [1, 11]: 12%
Compound: Phosphate
k · 10^3 [1, 11]: 3.9 l/mol · h
